Source: the supplement of paper PMC10307832

Legend:
Assay in all cases: relative viability (nuclei count vs DMSO), 5 days (fraction); higher = more cells survive
[1] = compound: Cc1ccc(C(=O)Nc2cccc(C(F)(F)F)c2)cc1Nc1cncc(C(N)=O)c1 [ALW-II-49-7] + Cc1nc(NC(=O)N2CCC[C@H]2C(N)=O)sc1-c1ccnc(C(C)(C)C(F)(F)F)c1 [Alpelisib] (partner 2 µM)
Outline: (§1)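 The day after seeding in 1536-well plates, lung cancer cell lines were treated by pin tool with a single drug, or with a fixed anchor-drug dose together with five library-drug doses (not always all listed) in √10 steps. After 5 days, a combined fix-and-stain solution (final 0.05% Triton X-100, 1% formaldehyde, 1 ug/ml Hoechst) was added. Nuclei counted on 4× images gave relative viability as treated counts over vehicle counts, reported as the median of duplicate plates.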

[2] = compound: Cc1nc(Nc2ncc(C(=O)Nc3c(C)cccc3Cl)s2)cc(N2CCN(CCO)CC2)n1 [Dasatinib] + N=C(N)NC(=N)NCCc1ccccc1 [Phenformin] (partner 250 µM)
Outline: as §1

[3] = compound: Cc1ccc(C(=O)Nc2cccc(C(F)(F)F)c2)cc1Nc1cncc(C(N)=O)c1 [ALW-II-49-7] + CC(C)C[C@H](NC(=O)[C@H](Cc1ccccc1)NC(=O)c1cnccn1)B(O)O [Bortezomib] (partner 0.002 µM)
Outline: as §1

[4] = compound: Cc1ccc(C(=O)Nc2cccc(C(F)(F)F)c2)cc1Nc1cncc(C(N)=O)c1 [ALW-II-49-7] + N=C(N)NC(=N)NCCc1ccccc1 [Phenformin] (partner 250 µM)
Outline: as §1

## UMC-11
[1]; first compound 0.08 µM
  relative viability: 0.841
[1]; first compound 0.253 µM
  relative viability: 1
[1]; first compound 2.53 µM
  relative viability: 1.06
[1]; first compound 8 µM
  relative viability: 0.971
[2]; first compound 0.005 µM
  relative viability: 0.307
[2]; first compound 0.01581 µM
  relative viability: 0.332
[2]; first compound 0.05 µM
  relative viability: 0.265
[2]; first compound 0.1581 µM
  relative viability: 0.234
[2]; first compound 0.5 µM
  relative viability: 0.171
[3]; first compound 0.08 µM
  relative viability: 0.514
[3]; first compound 0.253 µM
  relative viability: 0.786
[3]; first compound 2.53 µM
  relative viability: 0.792
[3]; first compound 8 µM
  relative viability: 0.521
[4]; first compound 0.08 µM
  relative viability: 0.347
[4]; first compound 0.253 µM
  relative viability: 0.372
[4]; first compound 0.8 µM
  relative viability: 0.352
[4]; first compound 2.53 µM
  relative viability: 0.304
[4]; first compound 8 µM
  relative viability: 0.268
